Data: PubChem BioAssay AID1963443 (Molecular Pharmacology Branch, DTP, NCI, 2024)
pIC50: −log10 of the molar value.

System: MDA-MB-231 complex spheroids, growth inhibition
Assay: Anticancer human tumor MDA-MB-231 cell line growth inhibition [Asc];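 also: spheroids exposed to compounds for 7 days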
Settings: for pIC50: curve of first compound; for viability, T/C: stronger effect = lower value
In short: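 Complex solid-tumor spheroids incorporating human endothelial and mesenchymal stem cells received single agents or combinations over half-log dilution ranges anchored to clinical Cmax.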

Q: What does the source list for `C#Cc1c(F)ccc2cc(O)cc(-c3ncc4c(N5CC6CCC(C5)N6)nc(OCC56CCCN5CC(F)C6)nc4c3F)c12` (configuration not stated) + CNC(C)C(=O)NC1CN(S(=O)(=O)c2cccc(S(=O)(=O)N3CCC4CCC(C(=O)NC(c5ccccc5)c5ccccc5)N4C(=O)C(NC(=O)C(C)NC)C3)c2)CCC2CCC(C(=O)NC(c3ccccc3)c3ccccc3)N2C1=O?
A: pIC50 (second compound 0.00316 µM): > 7.50; pIC50 (second compound 0.01 µM): > 7.50; pIC50 (second compound 0.0316 µM): > 7.50; pIC50 (second compound 0.1 µM): > 7.50; pIC50 (second compound 0.316 µM): 5.42; pIC50 (second compound 1 µM): 5.53; viability, T/C (second compound 0.00316 µM, first compound 0.0316 µM): 4.06%; viability, T/C (second compound 0.00316 µM, first compound 0.1 µM): 5.16%; viability, T/C (second compound 0.00316 µM, first compound 0.316 µM): 5.29%; viability, T/C (second compound 0.00316 µM, first compound 1 µM): 3.82%; viability, T/C (second compound 0.00316 µM, first compound 3.16 µM): 2.11%; viability, T/C (second compound 0.00316 µM, first compound 10 µM): 1.85%; viability, T/C (second compound 0.01 µM, first compound 0.0316 µM): 1.96%; viability, T/C (second compound 0.01 µM, first compound 0.1 µM): 2.54%; viability, T/C (second compound 0.01 µM, first compound 0.316 µM): 2.18%; viability, T/C (second compound 0.01 µM, first compound 1 µM): 3.28%; viability, T/C (second compound 0.01 µM, first compound 3.16 µM): 2.31%; viability, T/C (second compound 0.01 µM, first compound 10 µM): 1.91%; viability, T/C (second compound 0.0316 µM, first compound 0.0316 µM): 1.62%; viability, T/C (second compound 0.0316 µM, first compound 0.1 µM): 2.61%; viability, T/C (second compound 0.0316 µM, first compound 0.316 µM): 2.63%; viability, T/C (second compound 0.0316 µM, first compound 1 µM): 1.93%; viability, T/C (second compound 0.0316 µM, first compound 3.16 µM): 2.58%; viability, T/C (second compound 0.0316 µM, first compound 10 µM): 1.22%; viability, T/C (second compound 0.1 µM, first compound 0.0316 µM): 1.38%; viability, T/C (second compound 0.1 µM, first compound 0.1 µM): 1.67%; viability, T/C (second compound 0.1 µM, first compound 0.316 µM): 1.43%; viability, T/C (second compound 0.1 µM, first compound 1 µM): 1.74%; viability, T/C (second compound 0.1 µM, first compound 3.16 µM): 1.84%; viability, T/C (second compound 0.1 µM, first compound 10 µM): 2.09%; viability, T/C (second compound 0.316 µM, first compound 0.0316 µM): 112%; viability, T/C (second compound 0.316 µM, first compound 0.1 µM): 94.9%; viability, T/C (second compound 0.316 µM, first compound 0.316 µM): 96%; viability, T/C (second compound 0.316 µM, first compound 1 µM): 73%; viability, T/C (second compound 0.316 µM, first compound 3.16 µM): 51.6%; viability, T/C (second compound 0.316 µM, first compound 10 µM): 34.9%; viability, T/C (second compound 1 µM, first compound 0.0316 µM): 99.6%; viability, T/C (second compound 1 µM, first compound 0.1 µM): 110%; viability, T/C (second compound 1 µM, first compound 0.316 µM): 97.2%; viability, T/C (second compound 1 µM, first compound 1 µM): 68.8%; viability, T/C (second compound 1 µM, first compound 3.16 µM): 53.4%; viability, T/C (second compound 1 µM, first compound 10 µM): 38.7%
